Laboratory results taken from ChEMBL document CHEMBL1158659, “The alkaloids of Delphinium cashmirianum” (J Nat Prod, 1979).
Activity calls are given as the source filed them. The calls are words filed in the database; no cut-off is given here.

Assays:
Oryctolagus cuniculus [1] = assay: Cardiovascular activity in Albino rabbit assessed as change in heart rate tested at basal heart rate of 185 beats/min at 0.10 mg/kg, iv by physiograph 4; format: functional; settings: dose 0.1 mg/kg
Oryctolagus cuniculus [2] = assay: Cardiovascular activity in Albino rabbit assessed as change in heart rate tested at basal heart rate of 185 beats/min at 0.50 mg/kg, iv by physiograph 4; format: functional; settings: dose 0.5 mg/kg
Oryctolagus cuniculus [3] = assay: Cardiovascular activity in Albino rabbit assessed as change in heart rate tested at basal heart rate of 200 beats/min at 0.10 mg/kg, iv by physiograph 4; format: functional; settings: dose 0.1 mg/kg
Oryctolagus cuniculus [4] = assay: Cardiovascular activity in Albino rabbit assessed as change in heart rate tested at basal heart rate of 200 beats/min at 0.25 mg/kg, iv by physiograph 4; format: functional
Oryctolagus cuniculus [5] = assay: Cardiovascular activity in Albino rabbit assessed as change in heart rate tested at basal heart rate of 200 beats/min at 0.50 mg/kg, iv by physiograph 4; format: functional; settings: dose 0.5 mg/kg
Oryctolagus cuniculus [6] = assay: Cardiovascular activity in Albino rabbit assessed as change in heart rate tested at basal heart rate of 200 beats/min at 1.0 mg/kg, iv by physiograph 4; format: functional
Cavia porcellus [7] = species: Cavia porcellus; assay: Cardiovascular activity in albino guinea pig atria assessed as increase in heart rate by physiograph 4; format: functional, tissue-based; settings: Cardiac atrium
[8] = Arrhythmogenic activity in albino guinea pig atria at 30 uM; format: tissue-based, Cavia porcellus, Cardiac atrium
Oryctolagus cuniculus [9] = assay: Cardiotoxicity in iv dosed Albino rabbit assessed as drug level to produce arrhythmias tested at basal heart rate of 190 beats/min; format: toxicity, organism-based; settings: in vivo
Oryctolagus cuniculus [10] = assay: Cardiotoxicity in iv dosed Albino rabbit assessed as time to produce arrhythmias tested at basal heart rate of 190 beats/min; format: toxicity, organism-based; settings: in vivo
Oryctolagus cuniculus [11] = assay: Cardiovascular activity in Albino rabbit assessed as sinusoidal heart rate tested at basal heart rate of 150 beats/min at 0.005 mg/kg, iv by physiograph 4; format: functional
Oryctolagus cuniculus [12] = assay: Cardiovascular activity in Albino rabbit assessed as sinusoidal heart rate tested at basal heart rate of 150 beats/min at 0.010 mg/kg, iv by physiograph 4; format: functional; settings: dose 0.01 mg/kg
Oryctolagus cuniculus [13] = assay: Cardiotoxicity in iv dosed Albino rabbit assessed as drug level to produce arrhythmias tested at basal heart rate of 150 beats/min upto 30 mins; format: toxicity, organism-based; settings: in vivo, 0.5 h
Oryctolagus cuniculus [14] = assay: Cardiotoxicity in iv dosed Albino rabbit assessed as drug level to produce arrhythmias tested at basal heart rate of 150 beats/min; format: toxicity, organism-based; settings: in vivo
Oryctolagus cuniculus [15] = assay: Cardiotoxicity in iv dosed Albino rabbit assessed as time to produce arrhythmias tested at basal heart rate of 150 beats/min; format: toxicity, organism-based; settings: in vivo
[16] = Arrhythmogenic activity in albino guinea pig atria at 100 uM; format: tissue-based, Cavia porcellus, Cardiac atrium
[17] = Arrhythmogenic activity in albino guinea pig atria after repeated atrial washing; format: tissue-based, Cavia porcellus, Cardiac atrium
Oryctolagus cuniculus [18] = assay: Cardiovascular activity in Albino rabbit assessed as change in heart rate tested at basal heart rate of 190 beats/min at 0.10 mg/kg, iv by physiograph 4; format: functional; settings: dose 0.1 mg/kg
Oryctolagus cuniculus [19] = assay: Cardiovascular activity in Albino rabbit assessed as change in heart rate tested at basal heart rate of 190 beats/min at 0.25 mg/kg, iv by physiograph 4; format: functional
Oryctolagus cuniculus [20] = assay: Cardiovascular activity in Albino rabbit assessed as change in heart rate tested at basal heart rate of 190 beats/min at 0.50 mg/kg, iv by physiograph 4; format: functional; settings: dose 0.5 mg/kg
Oryctolagus cuniculus [21] = assay: Cardiovascular activity in Albino rabbit assessed as change in heart rate tested at basal heart rate of 190 beats/min at 1.0 mg/kg, iv by physiograph 4; format: functional
[22] = Arrhythmogenic activity in albino guinea pig atria at 10 uM after repeated atrial washing; format: tissue-based, Cavia porcellus, Cardiac atrium
Cavia porcellus [23] = species: Cavia porcellus; assay: Cardiovascular activity in albino guinea pig atria assessed as increase in heart rate at 100 uM by physiograph 4; format: functional, tissue-based; settings: Cardiac atrium
Oryctolagus cuniculus [24] = assay: Cardiovascular activity in Albino rabbit assessed as change in heart rate tested at basal heart rate of 185 beats/min at 0.25 mg/kg, iv by physiograph 4; format: functional
Oryctolagus cuniculus [25] = assay: Cardiovascular activity in Albino rabbit assessed as change in heart rate tested at basal heart rate of 185 beats/min at 1.0 mg/kg, iv by physiograph 4; format: functional
Oryctolagus cuniculus [26] = assay: Cardiovascular activity in Albino rabbit assessed as change in heart rate tested at basal heart rate of 185 beats/min at 5.0 mg/kg, iv by physiograph 4; format: functional
Oryctolagus cuniculus [27] = assay: Cardiovascular activity in Albino rabbit assessed as sinusoidal heart rate tested at basal heart rate of 200 beats/min at 0.05 mg/kg, iv by physiograph 4; format: functional
Oryctolagus cuniculus [28] = assay: Cardiovascular activity in Albino rabbit assessed as sinusoidal heart rate tested at basal heart rate of 185 beats/min at 0.05 mg/kg, iv by physiograph 4; format: functional

SMILES	Activity (Oryctolagus cuniculus [1]) [bpm]	Activity (Oryctolagus cuniculus [2]) [bpm]	Activity (Oryctolagus cuniculus [3]) [bpm]	Activity (Oryctolagus cuniculus [4]) [bpm]	Activity (Oryctolagus cuniculus [5]) [bpm]	Activity (Cavia porcellus [7])	Activity (Oryctolagus cuniculus [9]) [mg/kg]	Activity (Oryctolagus cuniculus [10]) [s]	Activity (Oryctolagus cuniculus [24]) [bpm]	Activity (Oryctolagus cuniculus [25]) [bpm]	Activity (Oryctolagus cuniculus [26]) [bpm]	other results
CCN1C[C@]2(CO)CC[C@H](OC)[C@@]34[C@@H]5C[C@H]6[C@H](OC)[C@@H]5[C@](O)(C[C@@H]6OC)[C@](O)([C@@H](OC)[C@H]23)[C@@H]14 [LYCOCTONINE]	-25	0	5	5	0							Activity (Oryctolagus cuniculus [6]): 0 bpm
CCN1C[C@]2(COC)[C@H](O)C[C@H](OC)[C@@]34[C@@H]5C[C@@]6(O)[C@H](OC(=O)c7ccccc7)[C@@H]5[C@@](OC(C)=O)([C@@H]([C@H](OC)[C@H]23)[C@@H]14)[C@@H](O)[C@@H]6OC [ACONITINE]						Dose-dependent effect	0.1	12				Activity [8]: Toxic; Activity (Oryctolagus cuniculus [11]): 110 bpm; Activity (Oryctolagus cuniculus [12]): 170 bpm; Activity (Oryctolagus cuniculus [13]): 0.005 mg/kg; Activity (Oryctolagus cuniculus [14]): 0.01 mg/kg; Activity (Oryctolagus cuniculus [15]): 30 s
CCN1C[C@]2(OC(=O)c3ccccc3NC(C)=O)CC[C@H](OC)[C@@]34[C@@H]2C[C@@H]([C@@H]13)[C@@]1(O)C[C@H](OC)[C@H]2C[C@@H]4[C@]1(O)[C@H]2OC						inactive	1	45				Activity [16]: Toxic; Activity [17]: Non-toxic; Activity (Oryctolagus cuniculus [18]): 0 bpm; Activity (Oryctolagus cuniculus [19]): -5 bpm; Activity (Oryctolagus cuniculus [20]): -30 bpm; Activity (Oryctolagus cuniculus [21]): -35 bpm; Activity [22]: Toxic; Activity (Cavia porcellus [23]): inactive
CCN1C[C@]2(C=O)CC[C@H](OC)[C@@]34[C@@H]5C[C@@H]6[C@@H](OC)C[C@@](O)(C5[C@H]6OC)[C@](O)([C@@H](OC)[C@H]23)[C@@H]14 [LYCOCTONAL]	-5	0	0	0	0				0	0	-10	Activity (Oryctolagus cuniculus [27]): -3 bpm; Activity (Oryctolagus cuniculus [28]): 0 bpm
CCN1C[C@]2(O)CC[C@H](OC)[C@@]34[C@@H]2C[C@H]([C@@H]13)[C@@]1(O)C[C@H](OC)[C@H]2C[C@@H]4[C@]1(O)[C@H]2OC [LAPPACONINE]	-5	0							0	0	0	
